Series [1] is described as follows: H+/Na+ transport assay of bead-derived peptides (one-point).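 Also: relative to parent gramicidin A activity set to 1.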 It is filed as biochemical. Set-up: key: relative activity; mean of two control wells = 1.00. As to conditions: bead-derived peptide solution, EYPC/EYPG LUVs. An outline of the steps:
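Miniaturized 96-well format. LUVs with entrapped pyranine (1.0 mM) were exposed to peptide for 30 min at RT. Intensities were expressed relative to full lysis by Triton X-100 and no treatment, with control-well mean = 1.00.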

For series [2] the following is noted: cell viability/%. An outline of the steps: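 P388 cells at 1 × 10^4 cells/mL (final) were exposed to library peptides (stocks diluted 250-fold in RPMI1640/10% FBS) for 92 h at 37 °C, 5% CO2. Viable cells were counted by WST-1/1-methoxy PMS (4 h), absorbance 415 nm, and expressed as cell viability (%).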
For series [3], the system named is Streptococcus pyogenes SSI-9. In words: Antibacterial activity assay of bead-derived peptides (three concentrations). It is filed as cell-based. Set-up: key: +++: inhibition by the 640-fold diluted peptide solution; ++: inhibition by the 160-fold diluted solution; +: inhibition by the 40-fold diluted solution; -: no inhibition. As to conditions: S. pyogenes, bead-derived peptide solution, three concentrations. In a few lines: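 Library peptide stock applied undiluted, 4-fold and 16-fold diluted in DMSO to S. pyogenes SSI-9 (2 × 10^5 CFU) in cation-adjusted Mueller Hinton broth with 5% laked horse blood. After 18 h at 37 °C, growth judged by visible cell precipitation.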

Where a SMILES comes first, the peptide text is derived from it. [ ]: non-standard residue; d: D form. The star is where a group is joined. NHCH2CH2OH = OCCN*; For = O=C*

For `CC(C)C[C@@H](NC(=O)[C@H](C)NC(=O)CNC(=O)[C@@H](NC=O)C(C)C)C(=O)N[C@@H](C)C(=O)N[C@@H](C(=O)N[C@H](C(=O)N[C@@H](C(=O)N[C@@H](Cc1c[nH]c2ccccc12)C(=O)N[C@@H](C(=O)N[C@@H](Cc1c[nH]c2ccccc12)C(=O)N[C@H](CC(C)C)C(=O)N[C@@H](Cc1c[nH]c2ccccc12)C(=O)N[C@H](CC(C)C)C(=O)N[C@@H](Cc1c[nH]c2ccccc12)C(=O)NCCO)[C@H](C)O)C(C)C)C(C)C)[C@H](C)O` [compound 1592] (For-VGA[dL]A[dT]V[dV]W[dT]W[dL]W[dL]W-NHCH2CH2OH), the “H+/Na+ transport activity normalized against the value of 1 (1.00)” value (“H+/Na+ transport activity normalized” for short) in series [1] amounted to 1.03. This compound showed a viability in series [2] of 100%. Further, in series [3], the antibacterial activity result is listed as “-”.

Consider `CC(C)C[C@@H](NC(=O)[C@H](C)NC(=O)CNC(=O)[C@@H](NC=O)C(C)C)C(=O)N[C@@H](C)C(=O)N[C@H](CC(C)C)C(=O)N[C@H](C(=O)N[C@@H](C(=O)N[C@@H](Cc1c[nH]c2ccccc12)C(=O)N[C@@H](C(=O)N[C@@H](Cc1c[nH]c2ccccc12)C(=O)N[C@H](CC(C)C)C(=O)N[C@@H](Cc1c[nH]c2ccccc12)C(=O)N[C@H](CC(C)C)C(=O)N[C@@H](Cc1c[nH]c2ccccc12)C(=O)NCCO)C(C)C)[C@H](C)O)C(C)C` [compound 1631] (For-VGA[dL]A[dL]V[dT]W[dV]W[dL]W[dL]W-NHCH2CH2OH), for which the “H+/Na+ transport activity normalized” value in series [1] was found to be 1.04. The compound also had a viability in series [2] of 100%. Besides, in series [3], the antibacterial activity result was “-”.

With `CC(C)C[C@@H](NC(=O)[C@H](C)NC(=O)CNC(=O)[C@@H](NC=O)C(C)C)C(=O)N[C@@H](C)C(=O)N[C@@H](C(=O)N[C@H](C(=O)N[C@@H](C(=O)N[C@@H](Cc1c[nH]c2ccccc12)C(=O)N[C@H](CC(C)C)C(=O)N[C@@H](Cc1c[nH]c2ccccc12)C(=O)N[C@@H](C(=O)N[C@@H](Cc1c[nH]c2ccccc12)C(=O)N[C@H](CC(C)C)C(=O)N[C@@H](Cc1c[nH]c2ccccc12)C(=O)NCCO)C(C)C)[C@H](C)O)C(C)C)C(C)C` [compound 1711] (For-VGA[dL]A[dV]V[dT]W[dL]W[dV]W[dL]W-NHCH2CH2OH), in series [1], the “H+/Na+ transport activity normalized” value was found to be 1.01. Moreover, the viability in series [2] was determined as 100%. The antibacterial activity entry in series [3] is given as “-”.

With `CC(C)C[C@@H](NC(=O)[C@H](C)NC(=O)CNC(=O)[C@@H](NC=O)C(C)C)C(=O)N[C@@H](C)C(=O)N[C@H](CC(C)C)C(=O)N[C@H](C(=O)N[C@@H](C(=O)N[C@@H](Cc1c[nH]c2ccccc12)C(=O)N[C@H](CC(C)C)C(=O)N[C@@H](Cc1c[nH]c2ccccc12)C(=O)N[C@H](CC(C)C)C(=O)N[C@@H](Cc1c[nH]c2ccccc12)C(=O)N[C@@H](C(=O)N[C@@H](Cc1c[nH]c2ccccc12)C(=O)NCCO)C(C)C)C(C)C)C(C)C` [compound 1796] (For-VGA[dL]A[dL]V[dV]W[dL]W[dL]W[dV]W-NHCH2CH2OH), the “H+/Na+ transport activity normalized” value in series [1] stood at 1.09. Besides, the viability in series [2] was found to be 0%. For the same compound, the antibacterial activity result in series [3] is listed as “-”.

Consider `CC(C)C[C@@H](NC(=O)[C@H](C)NC(=O)CNC(=O)[C@@H](NC=O)C(C)C)C(=O)N[C@@H](C)C(=O)N[C@@H](C(=O)N[C@H](C(=O)N[C@@H](C(=O)N[C@@H](Cc1c[nH]c2ccccc12)C(=O)N[C@H](CC(C)C)C(=O)N[C@@H](Cc1c[nH]c2ccccc12)C(=O)N[C@H](CC(C)C)C(=O)N[C@@H](Cc1c[nH]c2ccccc12)C(=O)N[C@H](CC(C)C)C(=O)N[C@@H](Cc1c[nH]c2ccccc12)C(=O)NCCO)[C@H](C)O)C(C)C)C(C)C` [compound 1819] (For-VGA[dL]A[dV]V[dT]W[dL]W[dL]W[dL]W-NHCH2CH2OH), for which, in series [1], the “H+/Na+ transport activity normalized” value is 1.22. In addition, the viability in series [2] amounted to 100%. The antibacterial activity entry in series [3] is reported as “+”.

The values are drawn from PMC7531004, “Discovery of gramicidin A analogues with altered activities by multidimensional screening of a one-bead-one-compound library” (Nature Communications, 2020).
